According to patent US20250129430A1, “HIGH ATP-AFFINITY PROTEIN AS THERAPEUTIC TARGET FOR INTRACTABLE CANCER MOLECULAR SUBTYPES AND INHIBITOR THEREOF” (VeraVerse Co., Ltd., priority 2021, published 2025):

Tests used:
Assay type in all cases: cell-based, human
AGS = test: Cell viability drug screen, 12-point dose-response AUC
Method in brief: (§1)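 Dose-response AUC reflects 72 h drug exposure of gastric cancer cells in a 12-point, half-log format, with viability read by luminescence and normalized to DMSO (0.5%).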

Hs746T = test: as above
Method in brief: (§2)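 AUC values represent the area under DMSO-normalized 12-point curves, computed by trapezoid rule and averaged over repeated experiments. Each EMT-type gastric line was exposed to half-log serial concentrations for 72 h at 37 °C, and viability was measured with a Glo luminescence kit.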

KATO3 = test: as above
Method in brief: as §2

MKN1 = test: as above
Method in brief: as §2

MKN28 = test: as above
Method in brief: as §2

MKN45 = test: as above
Method in brief: as §1

MKN74 = test: as above
Method in brief: as §1

NCC19 = test: as above
Method in brief: as §2

NCC20 = test: as above
Method in brief: as §2

NCC24 = test: as above
Method in brief: as §2

NCC59 = test: as above
Method in brief: as §2

NCI_N87 = test: as above
Method in brief: as §2

OCUM1 = test: as above
Method in brief: as §2

SK4 = test: as above
Method in brief: as §2

SNU16 = test: as above
Method in brief: as §2

SNU1750 = test: as above
Method in brief: as §2

SNU1967 = test: as above
Method in brief: as §2

SNU1 = test: as above
Method in brief: as §2

SNU216 = test: as above
Method in brief: as §1

SNU484 = test: as above
Method in brief: as §2

SNU601 = test: as above
Method in brief: as §2

SNU620 = test: as above
Method in brief: as §2

SNU638 = test: as above
Method in brief: as §2

SNU668 = test: as above
Method in brief: as §2

SNU719 = test: as above
Method in brief: as §1

YCC11 = test: as above
Method in brief: as §2

YCC2 = test: as above
Method in brief: as §2

YCC3 = test: as above
Method in brief: as §2

FU97 = test: as above; design: Average Area Under the Viability Curve (AUC), AUC norm value: scale not given here
Method in brief: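 Trapezoidal AUC of a 12-point, DMSO-normalized dose-response curve. Luminescent viability was measured after 72 h of exposure at 37° C to half-log serial dilutions (0.5% DMSO control), dosed 24 h after plating FU97 cells at 5×10^3 per well.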

[1] = system: non-SEM-type gastric cancer cell line; test: Cell viability drug screen, AUC summary over non-SEM-type lines; settings: in the non-SEM-type gastric cancer cell line

`Cc1ccc([N+](=O)[O-])cc1S(=O)(=O)N(C)/N=C/c1cnc2ccc(Br)cn12` [PIK-75] was tested, and the “Average Area Under the Viability Curve (AUC), AUC norm value” (“Average Area Under the Viability Curve” below) (AGS; AGS cells (non-SEM subtype), 72 hours) was −1.2576, the “Average Area Under the Viability Curve” value (Hs746T; Hs746T cells (SEM subtype), 72 hours) was 0.1171 and the “Average Area Under the Viability Curve” value (KATO3; KATO3 cells, 72 hours) was 3.793. For the same molecule, the “Average Area Under the Viability Curve” value (MKN1; MKN1 cells, 72 hours) was −0.03458, the “Average Area Under the Viability Curve” value (MKN28; MKN28 cells, 72 hours) was 0.05865 and the “Average Area Under the Viability Curve” value (MKN45; MKN45 cells (non-SEM subtype), 72 hours) was 1.17. For the same molecule, the “Average Area Under the Viability Curve” value (MKN74; MKN74 cells, 72 hours) was 0.2052, the “Average Area Under the Viability Curve” value (NCC19; NCC19 cells, 72 hours) was 0.3535 and the “Average Area Under the Viability Curve” value (NCC20; NCC20 cells, 72 hours) was −0.4913. For the same molecule, the “Average Area Under the Viability Curve” value (NCC24; NCC24 cells, 72 hours) was −0.07825, the “Average Area Under the Viability Curve” value (NCC59; NCC59 cells, 72 hours) was −0.1565 and the “Average Area Under the Viability Curve” value (NCI_N87; NCI_N87 cells, 72 hours) was −0.1238. The “Average Area Under the Viability Curve” value (OCUM1; OCUM1 cells, 72 hours) was 0.5105, the “Average Area Under the Viability Curve” value (SK4; SK4 cells (SEM subtype), 72 hours) was −1.009 and the “Average Area Under the Viability Curve” value (SNU16; SNU16 cells, 72 hours) was −1.485. For the same molecule, the “Average Area Under the Viability Curve” value (SNU1750; SNU1750 cells (SEM subtype), 72 hours) was 0, the “Average Area Under the Viability Curve” value (SNU1967; SNU1967 cells, 72 hours) was −0.3048 and the “Average Area Under the Viability Curve” value (SNU1; SNU1 cells, 72 hours) was −0.3397. The “Average Area Under the Viability Curve” value (SNU216; SNU216 cells (non-SEM subtype), 72 hours) was 0.8132, the “Average Area Under the Viability Curve” value (SNU484; SNU484 cells (SEM subtype), 72 hours) was −0.9469 and the “Average Area Under the Viability Curve” value (SNU601; SNU601 cells, 72 hours) was 1.999. The “Average Area Under the Viability Curve” value (SNU620; SNU620 cells, 72 hours) was 0.7882, the “Average Area Under the Viability Curve” value (SNU638; SNU638 cells, 72 hours) was 1.312 and the “Average Area Under the Viability Curve” value (SNU668; SNU668 cells (SEM subtype), 72 hours) was −0.428. The “Average Area Under the Viability Curve” value (SNU719; SNU719 cells, 72 hours) was 5.726, the “Average Area Under the Viability Curve” value (YCC11; YCC11 cells (SEM subtype), 72 hours) was −0.5398 and the “Average Area Under the Viability Curve” value (YCC2; YCC2 cells, 72 hours) was 1.289. The “Average Area Under the Viability Curve” value (YCC3; YCC3 cells, 72 hours) was 1.723, the “Average Area Under the Viability Curve” value (FU97; FU97 cells, 72 hours) was −0.5267 and the AUC value [1] was “high”.
`[O-][n+]1ccccc1[S-].[O-][n+]1ccccc1[S-].[Zn+2]` [PYRITHIONE ZINC, Pyrithione zinc] was tested, and the “area under the viability curve (AUC), normalized” value (“area … normalized” below) (AGS) was −0.9355, the “area … normalized” value (Hs746T) was −0.541 and the “area … normalized” value (KATO3) was 0.8219. The “area … normalized” value (MKN1) was −0.4913, the “area … normalized” value (MKN28) was 0.1421 and the “area … normalized” value (MKN45) was −1.0871. For the same molecule, the “area … normalized” value (MKN74) was −1.149, the “area … normalized” value (NCC19) was 0.7336 and the “area … normalized” value (NCC20) was −0.7838. For the same molecule, the “area … normalized” value (NCC24) was −0.309, the “area … normalized” value (NCC59) was 0.7288 and the “area … normalized” value (NCI_N87) was 1.161. The “area … normalized” value (OCUM1) was 0.5355, the “area … normalized” value (SK4) was 0 and the “area … normalized” value (SNU16) was 1.28. The “area … normalized” value (SNU1750) was 0.1011, the “area … normalized” value (SNU1967) was −0.5027 and the “area … normalized” value (SNU1) was 1.431. For the same molecule, the “area … normalized” value (SNU216) was −0.2272, the “area … normalized” value (SNU484) was −0.9287 and the “area … normalized” value (SNU601) was 2.666. For the same molecule, the “area … normalized” value (SNU620) was −0.7817, the “area … normalized” value (SNU638) was −0.08685 and the “area … normalized” value (SNU668) was 0.7681. The “area … normalized” value (SNU719) was 1.547, the “area … normalized” value (YCC11) was −1.337 and the “area … normalized” value (YCC2) was −0.08387. The “area … normalized” value (YCC3) was 0.6512, the “area … normalized” value (FU97) was 0.3344 and the AUC value [1] was “high”.
